pKi: −log10 of the molar value.

The term pKi denotes the negative decadic logarithm of the Ki, by convention in mol/L.

In this experiment the target is human PDE10A2 (Homo sapiens (Human), UniProt Q9Y233). In words: PDE10 fluorescence polarization (IMAP FP) inhibition assay. The format is biochemical. The note with it: human PDE10A2 lysate, FAM-labeled cAMP 50 nM, room temperature; read-out: PDE10A Ki. The procedure: The activity of the compounds in accordance with the present invention as PDE10 inhibitors may be readily determined without undue experimentation using a fluorescence polarization (FP) methodology that is well known in the art (Huang, W., et al., J. Biomol Screen, 2002, 7: 215). […] In a typical experiment the PDE10 inhibitory activity of the compounds of the present invention was determined in accordance with the following experimental method. PDE10A2 was amplified from human fetal brain cDNA (Clontech, Mountain View, Calif.) using a forward primer corresponding to nucleotides 56-77 of human PDE10A2 (Accession No. AF127480, Genbank Identifier 4894716), containing a Kozak consensus sequence, and a reverse primer corresponding to nucleotides 2406-2413 of human PDE10A2 (Accession No. AF127480, Genbank Identifier 4894716). Amplification with Easy-A polymerase (Stratagene, La Jolla, Calif.) was 95° C. for 2 minutes followed by thirty three cycles of 95° C. for 40 seconds, 55° C. for 30 seconds, and 72° C. for 2 minutes 48 seconds. Final extension was 72° C. for 7 minutes. The PCR product was TA cloned into pcDNA3.2-TOPO (Invitrogen, Carlsbad, Calif.) according to standard protocol. AD293 cells with 70-80% confluency were transiently transfected with human PDE10A2/pcDNA3.2-TOPO using Lipofectamine 2000 according to manufacturer specifications (Invitrogen, Carlsbad, Calif.). Cells were harvested 48 hours post-transfection and lysed by sonication (setting 3, 10×5 sec pulses) in a buffer containing 20 mM HEPES, 1 mM EDTA and protease inhibitor cocktail (Roche). Lysate was collected by centrifugation at 75,000×g for 20 minutes. Supernatant containing the cytoplasmic fraction was used for evaluation of PDE10A2 activity. The fluorescence polarization assay for cyclic nucleotide phosphodiesterases was performed using an IMAP® FP kit supplied by Molecular Devices, Sunnyvale, Calif. (product #R8139). IMAP® technology has been applied previously to phosphodiesterase assays (Huang, W., et al., J. Biomol Screen, 2002, 7: 215). Assays were performed at room temperature in 384-well microtiter plates with an incubation volume of 20.2 μL. Solutions of test compounds were prepared in DMSO and serially diluted with DMSO to yield 8 μL of each of 10 solutions differing by 3-fold in concentration, at 32 serial dilutions per plate. 100% inhibition is determined using a known PDE10 inhibitor, which can be any compound that is present at 5,000 times its Ki value in the assay described as follows, such as papaverine (see Siuciak, et al. Neuropharmacology (2006) 51:386-396; Becker, et al. Behav Brain Res (2008) 186(2):155-60; Threlfell, et al., J Pharmacol Exp Ther (2009) 328(3):785-795), 2-{4-[pyridin-4-yl-1-(2,2,2-trifluoroethyl)-1H-pyrazol-3-yl]phenoxymethyl}quinoline succinic acid or 2-[4-(1-methyl-4-pyridin-4-yl-1H-pyrazol-3-yl)-phenoxymethyl]quinoline succinic acid (see Schmidt, et al. J Pharmacol Exp Ther (2008) 325:681-690; Threlfell, et al., J Pharmacol Exp Ther (2009) 328(3): 785-795). 0% of inhibition is determined by using DMSO (1% final concentrations).
Sequence of human PDE10A2 (Q9Y233 267-1055): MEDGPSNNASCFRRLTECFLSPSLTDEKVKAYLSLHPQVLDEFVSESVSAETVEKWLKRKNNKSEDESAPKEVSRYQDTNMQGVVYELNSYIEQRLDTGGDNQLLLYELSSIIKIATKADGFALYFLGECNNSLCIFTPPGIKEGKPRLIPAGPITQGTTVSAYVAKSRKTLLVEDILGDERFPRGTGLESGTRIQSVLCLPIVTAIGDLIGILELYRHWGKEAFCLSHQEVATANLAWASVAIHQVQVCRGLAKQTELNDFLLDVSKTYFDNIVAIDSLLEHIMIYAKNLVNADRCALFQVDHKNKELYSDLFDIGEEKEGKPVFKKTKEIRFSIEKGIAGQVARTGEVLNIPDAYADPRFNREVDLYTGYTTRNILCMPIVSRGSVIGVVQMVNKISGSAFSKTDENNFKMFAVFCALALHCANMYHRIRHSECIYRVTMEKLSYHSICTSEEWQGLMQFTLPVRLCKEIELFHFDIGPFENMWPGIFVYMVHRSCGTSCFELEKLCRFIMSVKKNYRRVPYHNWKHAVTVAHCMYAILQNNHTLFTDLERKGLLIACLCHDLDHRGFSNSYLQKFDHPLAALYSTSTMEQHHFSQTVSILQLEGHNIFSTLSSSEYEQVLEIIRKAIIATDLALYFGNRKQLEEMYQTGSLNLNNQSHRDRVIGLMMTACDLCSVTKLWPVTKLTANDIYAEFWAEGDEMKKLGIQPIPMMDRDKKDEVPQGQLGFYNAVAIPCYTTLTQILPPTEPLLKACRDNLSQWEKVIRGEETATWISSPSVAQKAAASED
A Labcyte Echo 555 (Labcyte, Sunnyvale, Calif.) is used to dispense 200 nL from each well of the titration plate to the 384 well assay plate. A solution of enzyme (1/1600 dilution from aliquots; sufficient to produce 20% substrate conversion) and a separate solution of FAM-labeled cAMP PDE from Molecular Devices (product #R7506), at a final concentration of 50 nM are made in the assay buffer (10 mM Tris HCl, pH 7.2, 10 mM MgCl2, 0.05% NaN3 0.01% Tween-20, and 1 mM DTT). The enzyme and the substrate are then added to the assay plates in two consecutive additions of 10 μL, and then shaken to mix. The reaction is allowed to proceed at room temperature for 30 minutes. A binding solution is then made from the kit components, comprised of 80% Solution A, 20% Solution B and binding reagent at a volume of 1/600 the total binding solution.
A general note: In fluorescence polarisation assays a small probe gives low polarisation when free and higher when bound to something large.
`Cc1cnc(CNc2cc(OC[C@H]3C[C@@H]3c3ccn(C)n3)nn(C)c2=O)s1` [Example 26, 2-methyl-6-(((1S,2S)-2-(1-methyl-1H-pyrazol-3-yl)cyclopropyl)methoxy)-4-((5-methylthiazol-2-yl)methylamino)pyridazin-3(2H)-one]: the pKi was 10.01.

In the case of `Cn1cc(CNc2cc(OC[C@H]3C[C@@H]3c3ccc(Cl)cn3)nn(C)c2=O)cn1` [Example 27, 6-(((1S,2S)-2-(5-chloro-pyridin-2-yl)cyclopropyl)-methoxy)-2-methyl-4-((1-methyl-1H-pyrazol-4-yl)methylamino)pyridazin-3(2H)-one], the negative logarithm of the Ki (pKi) was 9.47.

With `Cc1cc(CNc2cc(OC[C@H]3C[C@@H]3c3ccc(OC(F)F)cn3)nn(C)c2=O)n(C)n1` [Example 28, 6-(((1S,2S)-2-(5-(difluoro-methoxy)pyridin-2-yl)-cyclopropyl)-methoxy)-4-((1,3-dimethyl-1H-pyrazol-5-yl)methyl-amino)-2-methylpyridazin-3(2H)one], the pKi is 10.34.

Regarding `Cc1ncc(CNc2cc(OC[C@H]3C[C@@H]3c3ccc(OC(F)F)cn3)nn(C)c2=O)s1` [Example 29, 6-(((1S,2S)-2-(5-(difluoromethoxy)pyridin-2-yl)cyclopropyl)-methoxy)-2-methyl-4-((2-methylthiazol-5-yl)methyl-amino)pyridazin-3(2H)one], the pKi was 9.96.

As to `Cn1cc(CNc2cc(OC[C@H]3C[C@@H]3c3ccc(OC(F)F)cn3)nn(C)c2=O)cn1` [Example 30, 6-(((1S,2S)-2-(5-(difluoromethoxy)pyridin-2-yl)cyclopropyl)methoxy)-2-methyl-4-((1-methyl-1H-pyrazol-4-yl)methylamino)pyridazin-3(2H)-one], the pKi is 9.26.

Turning to `Cc1ccc([C@H]2C[C@@H]2COc2cc(NCc3ncc(C)s3)c(=O)n(C)n2)nc1` [Example 31, 2-methyl-6-(((1S,2S)-2-(5-methylpyridin-2-yl)cyclopropyl)methoxy)-4-((5-methylthiazol-2-yl)methylamino)pyridazin-3(2H)-one], the negative logarithm of the Ki (pKi) is 11.15.

Regarding `Cc1cnc(CNc2cc(OC[C@H]3C[C@@H]3c3ccc(F)cn3)nn(C)c2=O)s1` [Example 32, 6-(((1S,2S)-2-(5-fluoropyridin-2-yl)cyclopropyl)methoxy)-2-methyl-4-((5-methylthiazol-2-yl)methylamino)pyridazin-3(2H)-one], the pKi was 9.75.

As to `Cc1cc(CNc2cc(OC[C@H]3C[C@@H]3c3ccc(Cl)cn3)nn(C)c2=O)n(C)n1` [Example 33, 6-(((1S,2S)-2-(5-chloropyridin-2-yl)cyclopropyl)methoxy)-4-((1,3-dimethyl-1H-pyrazol-5-yl)methylamino)-2-methylpyridazin-3(2H)-one], the pKi is 10.70.

With `Cc1ncc(CNc2cc(OC[C@H]3C[C@@H]3c3ccc(Cl)cn3)nn(C)c2=O)s1` [Example 34, 6-(((1S,2S)-2-(5-chloropyridin-2-yl)cyclopropyl)methoxy)-2-methyl-4-((2-methylthiazol-5-yl)methylamino)pyridazin-3(2H)-one], the pKi was 10.19.

For `Cc1ccc([C@H]2C[C@@H]2COc2cc(NCc3c(Cl)c(C)nn3C)c(=O)n(C)n2)nc1` [Example 35, 4-((4-chloro-1,3-dimethyl-1H-pyrazol-5-yl)methylamino)-2-methyl-6-(((1S,2S)-2-(5-methylpyridin-2-yl)cyclopropyl)methoxy)-pyridazin-3(2H)-one], the pKi is 9.32.

As for `Cc1nnc(CN(C)c2cc(OC[C@H]3C[C@@H]3c3ccc4ccccc4n3)nn(C)c2=O)s1` [Example 36, 2-methyl-4-(methyl((5-methyl-1,3,4-thiadiazol-2-yl)methyl)amino)-6-(((1S,2S)-2-(quinolin-2-yl)cyclopropyl)methoxy)-pyridazin-3(2H)-one], the pKi was 9.04.

Consider `COc1ccc([C@H]2C[C@@H]2COc2cc(NCc3cn(C)nc3C)c(=O)n(C)n2)nc1` [Example 37, 4-((1,3-dimethyl-1H-pyrazol-4-yl)methyl-amino)-6-(((1S,2S)-2-(5-methoxypyridin-2-yl)cyclopropyl)methoxy)-2-methylpyridazin-3(2H)-one], for which the pKi was 11.05.

`Cc1ccc([C@H]2C[C@@H]2COc2cc(NCc3c(C)nn(C)c3Cl)c(=O)n(C)n2)nc1` [Example 38, 4-((5-chloro-1,3-dimethyl-1H-pyrazol-4-yl)methyl-amino)-2-methyl-6-(((1S,- 2S)-2-(5-methyl-pyridin-2-yl)cyclopropyl)methoxy)-pyridazin-3(2H)-one]: the pKi was 8.82.

Take `COc1ccc([C@H]2C[C@@H]2COc2cc(NCc3c(C)nn(C)c3Cl)c(=O)n(C)n2)nc1` [Example 39, 4-((5-chloro-1,3-dimethyl-1H-pyrazol-4-yl)methylamino)-6-(((1S,2S)-2-(5-methoxypyridin-2-yl)cyclopropyl)methoxy)-2-methylpyridazin-3(2H)-one]: the pKi was 8.80.

`Cc1nn(C)c(Cl)c1CNc1cc(OC[C@H]2C[C@@H]2c2ccn(C)n2)nn(C)c1=O` [Example 40]: the pKi is 7.93.

As for `Cn1ccc([C@H]2C[C@@H]2COc2cc(NCc3nccs3)c(=O)n(C)n2)n1` [Example 47, 2-methyl-6-(((1S,2S)-2-(1-methyl-1H-pyrazol-3-yl)cyclopropyl)methoxy)-4-((thiazol-2-ylmethyl)amino)pyridazin-3(2H)-one], the pKi is 8.09.

For the compound `Cc1nc(CNc2cc(OC[C@H]3C[C@@H]3c3ccn(C)n3)nn(C)c2=O)cs1` [Example 48], the pKi was less than 7.00.

As for `COc1ccc([C@H]2C[C@@H]2COc2cc(NCc3ccc(C)nc3C)c(=O)n(C)n2)nc1` [Example 50, 4-(((2,6-dimethylpyridin-3-yl)methyl)amino)-6-(((1S,2S)-2-(5-methoxypyridin-2-yl)cyclopropyl)methoxy)-2-methylpyridazin-3(2H)-one], the pKi was 11.52.

For the compound `Cc1ccc(CNc2cc(OC[C@H]3C[C@@H]3c3ccn(C)n3)nn(C)c2=O)c(C)n1` [Example 51, 4-(((2,6-dimethylpyridin-3-yl)methyl)amino)-2-methyl-6-(((1S,2S)-2-(1-methyl-1H-pyrazol-3-yl)cyclopropyl)methoxy)-pyridazin-3(2H)-one], the pKi was 10.64.

In the case of `Cc1ccc([C@H]2C[C@@H]2COc2cc(NCc3ccc(C)nc3C)c(=O)n(C)n2)nc1` [Example 52, 4-(((2,6-dimethylpyridin-3-yl)methyl)amino)-2-methyl-6-(((1S,2S)-2-(5-methylpyridin-2-yl)cyclopropyl)methoxy)-pyridazin-3(2H)-one], the pKi was 11.15.

`Cc1ccc(CNc2cc(OC[C@H]3C[C@@H]3c3ccc(F)cn3)nn(C)c2=O)c(C)n1` [Example 53, 4-(((2,6-dimethylpyridin-3-yl)methyl)amino)-6-(((1S,2S)-2-(5-fluoro-pyridin-2-yl)cyclopropyl-)-methoxy)-2-methyl-pyridazin-3(2H)-one]: the negative logarithm of the Ki (pKi) was 10.47.

Take `Cc1ccc(CNc2cc(OC[C@H]3C[C@@H]3c3ccc(Cl)cn3)nn(C)c2=O)c(C)n1` [Example 54]: the pKi is 10.72.

In the case of `Cc1ccc(CNc2cc(OC[C@H]3C[C@@H]3c3ccccn3)nn(C)c2=O)c(C)n1` [Example 55, 4-(((2,6-dimethylpyridin-3-yl)methyl)amino)-2-methyl-6-(((1S,2S)-2-(pyridin-2-yl)cyclopropyl-)-methoxy)pyridazin-3(2H)-one], the pKi was 10.68.

The record behind these values is patent US9353104B2, “Substituted pyridizinone derivatives as PDE10 inhibitors” (priority 2013, dated 2016).
